According to article PMC10732398 (PLOS Pathogens, 2023):

How the values were obtained:
[1] = tested on: ⍺4β7 transfected 293T cells; test: Flow cytometry: staining of 293T cells co-transfected with ⍺4 and β7 expression vectors; type: binding; conditions: PE-labelled ligand, Fig 1C
Description: The FRET/FLIM results described above indicate a direct interaction between CD4 and ⍺4β7. […] To this end we employed a fluorescently labelled soluble dodecameric CD4 Ig fusion protein, termed D1D2-Ig⍺tp, that includes the two N-terminal Ig-like domains of CD4 (D1D2, aa 1–180), followed by IgG1 CH2 and CH3 domains, followed by the 18 aa tail-piece domain of IgA (⍺tp). In this oligomer, 12 D1D2-Igs are arranged in a disulphide linked daisy-chain (Fig 1A). Primary CD4^+ T cells, some of which express ⍺4β7, were reacted with D1D2-Ig⍺tp and analyzed by flow-cytometry. A second oligomeric Ig fusion protein, MicA-Ig⍺tp, which includes the two N-terminal domains of MicA, was employed as a specificity control. […] MAdCAM-Ig was employed as a positive control. […] We conclude that an oligomeric soluble CD4 that includes only its two N-terminal domains can bind to ⍺4β7 in a specific way.
Fig 1 Binding of soluble CD4 to ⍺4β7 on CD4^+ T cells. (A) Schematic of D1D2-Ig⍺tp. […] X-axis indicates geometric mean fluorescence intensity (gMFI). […]
(§1) Cells were stained with fluoresceine conjugated mAbs or recombinant proteins using standard procedures preceded by Fc receptor blocking with human IgG. […] Data were acquired using a FACSCanto II (BD Biosciences) and analyzed with FlowJo software (BD Biosciences). […]

⍺4β7 on RPMI8866 cells = test: Flow cytometry: ligand staining of ⍺4β7-expressing cells in buffers with different divalent cations; type: binding, human; conditions: absence of divalent cations (0.1 mM EDTA)
Description: Fig 1 Binding of soluble CD4 to ⍺4β7 on CD4^+ T cells. (A) Schematic of D1D2-Ig⍺tp. (B) Flow-cytometry histogram of PE-conjugated D1D2-Ig⍺tp staining of CD4^+ T cells alone (blue) or in the presence of either the anti ⍺4 mAb 2B4 (green) or an irrelevant mAb (black-dashed). Cells stained with PE-conjugated MicA-Ig⍺tp (red), along with unstained cells (grey) are included. X-axis indicates geometric mean fluorescence intensity (gMFI). (C) 293T cells untransfected or co-transfected with ⍺4 and β7 expression vectors stained with either PE-D1D2-Ig⍺tp or PE-MAdCAM-Ig in the absence or presence of the ⍺4 antagonist FG. Y-axis indicates gMFI. (D) CD4^+ T cells stained with anti CD45RO (x-axis) anti β7 (y-axis) (left), or with anti CD45RO (x-axis) and D1D2-Ig⍺tp (y-axis) (right). % cells in each quadrant, as indicated. (E) CD4^+ T cells stained as in B, with lower MW forms of oligomerized D1D2-Ig⍺tp. Left Y-axis indicates gMFI (bars), right Y-axis indicates relative MW (kDa) (•). […]
as §1

## MAdCAM-Ig: recombinant MAdCAM-1 Ig fusion, R&D Systems [reference compound]
[1]
  binding to ⍺4β7 transfected versus untransfected 293T cells (in words): bound preferentially to ⍺4β7 transfected cells
⍺4β7 on RPMI8866 cells
  binding to ⍺4β7 (in words): failed to bind
